{
  "source": "patent US8460868B2",
  "about": "“Genetic markers for schizophrenia and bipolar disorder” (priority 2007, dated 2013)",
  "key": {"[1]": {"system": "patients with schizophrenia", "test": "CATIE trial drug response (>20% decrease in PANSS Total Score) by HPCAL1/SV2C genotype", "type": "in vivo, human", "details": "for Response frequency: CATIE Phase 1; for OR vs. Low / OR vs. baseline: response; for OR vs. Low: vs low scoring genotype(s); for OR vs. baseline: vs sample not segmented by genotype", "description": "(§1) The Clinical Antipsychotic Trials of Intervention Effectiveness (CATIE), a large federally funded clinical trial designed to assess the efficacy of antipsychotics in a real world setting, is a valuable resource for determining the role of genes in drug response (Stroup et al., Schizophr. Bull. 29:15-31 (2003); Lieberman et al., N. Engl. J. […] As part of the CATIE trial SNP genotyping was performed for roughly half of the trial participants (Sullivan et al., Mol. Psychiatry 13:570-584 (2008)). […] The design of the CATIE study has been described in detail by others (Stroup et al., Schizophr. Bull. 29:15-31 (2003); Lieberman et al., N. Engl. J. […] A total of 738 subjects consented to provide DNA for genetic study. […] Genotype and phenotype data for the CATIE trial were made available to qualified researchers through The NIMH Center for Collaborative Genetic Studies on Mental Disorders. For reduction to practice, we evaluated data for 417 patients with schizophrenia self reported as having exclusively European ancestry. […] Golden Helix, Bozeman, Mont.). To generate a P value, HelixTree calculates analysis of deviance (a likelihood ratio statistic) that compares the observed contingency table vs. an expected contingency table created with all the possible variations of the genetic model. […] The standard FDA registration trial definition of response of >20% decrease in Positive and Negative Syndrome Scale (PANSS Total Score) was used to assign subjects to a response category. […] Bull. 29:73-80 (2003)). […] The tables report odds ratios relative to the baseline values (sample not segmented by genotype) and relative to values for the low scoring, mutually exclusive genotype(s)."}, "[2]": {"system": "patients with schizophrenia", "test": "CATIE trial side effects (discontinued for safety concerns, COMPEFF score 5) by HPCAL1/SV2C genotype", "type": "in vivo, human", "details": "for OR vs. Low / OR vs. baseline: side effects; for OR vs. Low: vs low scoring genotype(s); for OR vs. baseline: vs sample not segmented by genotype", "description": "as §1"}, "[3]": {"details": "SV2C rs6453205 genotype C/C (C)"}, "[4]": {"details": "HPCAL1 rs11679891 genotype A/C, C/C (C)"}, "[5]": {"details": "HPCAL1 rs13033617 genotype C/C (C)"}, "[6]": {"details": "HPCAL1 rs11679891 genotype C/C (C)"}, "[7]": {"details": "SV2C rs4610441 genotype C/C (C)"}, "[8]": {"details": "SV2C rs10064352 genotype T/T (T)"}, "[9]": {"details": "SV2C rs10474464 genotype C/C (C)"}, "[10]": {"details": "SV2C rs12152728 genotype C/C (C)"}, "[11]": {"details": "SV2C rs12522597 genotype G/G, A/G (G)"}, "[12]": {"details": "HPCAL1 rs7571627 genotype T/T (T)"}},
  "data": [
    {"smiles": "OCCN1CCN(CCCN2c3ccccc3Sc3ccc(Cl)cc32)CC1", "note": "[perphenazine]", "values": [
      {"measurement": "Response frequency", "setting": "[1]; [3]", "result": 0.7},
      {"measurement": "OR vs. Low", "setting": "[1]; [3]", "result": 3.36},
      {"measurement": "OR vs. baseline", "setting": "[1]; [3]", "result": 2.43},
      {"measurement": "Frequency Study ending side effects", "setting": "[2]; [4]", "result": 0.19},
      {"measurement": "OR vs. Low", "setting": "[2]; [4]", "result": ">10"},
      {"measurement": "OR vs. baseline", "setting": "[2]; [4]", "result": 1.44},
      {"measurement": "Frequency Study ending side effects", "setting": "[2]; [5]", "result": 0.27},
      {"measurement": "OR vs. Low", "setting": "[2]; [5]", "result": 3.74},
      {"measurement": "OR vs. baseline", "setting": "[2]; [5]", "result": 2.27}
    ]},
    {"smiles": "OCCOCCN1CCN(C2=Nc3ccccc3Sc3ccccc32)CC1", "note": "[quetiapine]", "values": [
      {"measurement": "Response frequency", "setting": "[1]; [6]", "result": 0.6},
      {"measurement": "OR vs. baseline", "setting": "[1]; [6]", "result": 3.05},
      {"measurement": "Response frequency", "setting": "[1]; [7]", "result": 0.6},
      {"measurement": "OR vs. baseline", "setting": "[1]; [7]", "result": 3.05},
      {"measurement": "Response frequency", "setting": "[1]; [8]", "result": 0.6},
      {"measurement": "OR vs. Low", "setting": "[1]; [8]", "result": 3.67},
      {"measurement": "OR vs. baseline", "setting": "[1]; [8]", "result": 3.05},
      {"measurement": "Response frequency", "setting": "[1]; [9]", "result": 0.6},
      {"measurement": "OR vs. baseline", "setting": "[1]; [9]", "result": 3.05},
      {"measurement": "Response frequency", "setting": "[1]; [10]", "result": 0.5},
      {"measurement": "OR vs. Low", "setting": "[1]; [10]", "result": 2.70},
      {"measurement": "OR vs. baseline", "setting": "[1]; [10]", "result": 2.03}
    ]},
    {"smiles": "Cc1nc2n(c(=O)c1CCN1CCC(c3noc4cc(F)ccc34)CC1)CCCC2", "note": "[risperidone]", "values": [
      {"measurement": "Response frequency", "setting": "[1]; SV2C rs4704297 genotype C/C, C/G (C)", "result": 0.45}
    ]},
    {"smiles": "O=C1Cc2cc(CCN3CCN(c4nsc5ccccc45)CC3)c(Cl)cc2N1", "note": "[ziprasidone]", "values": [
      {"measurement": "Response frequency", "setting": "[1]; [11]", "result": 0.55},
      {"measurement": "OR vs. Low", "setting": "[1]; [11]", "result": 9.89},
      {"measurement": "OR vs. baseline", "setting": "[1]; [11]", "result": 1.49},
      {"measurement": "Frequency Study ending side effects", "setting": "[2]; [12]", "result": 0.33},
      {"measurement": "OR vs. Low", "setting": "[2]; [12]", "result": 4.98},
      {"measurement": "OR vs. baseline", "setting": "[2]; [12]", "result": 1.56},
      {"measurement": "Frequency Study ending side effects", "setting": "[2]; SV2C rs246812 genotype A/A (A)", "result": 0.5},
      {"measurement": "OR vs. Low", "setting": "[2]; SV2C rs246812 genotype A/A (A)", "result": 6.14},
      {"measurement": "OR vs. baseline", "setting": "[2]; SV2C rs246812 genotype A/A (A)", "result": 3.17}
    ]}
  ]
}
